Results taken from patent US8715681B2, “Minimal motifs of linear B-cell epitopes in L1 protein from human papillomavirus type 58 and their applications” (Hengsun Pharmaceutical Technology Co. Ltd., priority 2012, dated 2014).
Ends that are not written are not given here.

System: rabbit serum raised against r-L1C
Assay: Epitope mapping of 18-mer peptide-GST188 fusion proteins by Western blotting with anti-r-L1C rabbit serum
Assay type: binding
Conditions: 18-mer peptides P25-P60 fused with GST188
Description: 1. The clone of HPV 58 genome was purchased from commercial resource (20). With regular PCR method, the N terminal and C terminal of full-length HPV58-L1 cDNA were amplified from the HPV 58 genome we purchased and then were reconstructed into pRSET-C fusion expression plasmid. The expressed r-L1N^36-233 and r-L1C^226-524 proteins were purified from E. coli, and finally used as antigen to immunize three New Zealand white rabbits to prepare rabbit antisera against r-L1N^36-233 or r-L1C^226-524, respectively.
2. Previously we have constructed a fusion expression plasmid pXXGST-1 specially used for 8/18-mer short peptide biosynthesis in epitope mapping. In this plasmid, the macromolecule protein carrier was a truncated glutathione S-transferases (GST) with 188 residues (GST188) (China Patent NO.: 200710173305.2; 18). DNA recombinant technology was employed to express two sets of 18-mer peptides overlapping each other by 10 residues covering the domains of L1N^36-233 and L1C^226-524 fused with GST188, respectively. Specifically the DNA fragments encoding different short peptide were inserted into pXXGST-1 plasmid after annealing of chemically synthesized plus and minus DNA strands to double-strand DNA. […]

P27: biosynthetic 18-mer peptide of HPV58 L1 fused with GST188; contains DVPID (NKSDVPIDICNSTCKYPD; not fully specified (N-terminus); cysteine pairing not given here)
reactivity in Western blotting: reactive
